Data reported in patent US3956279A, “Crystalline pivaloyloxymethyl d(-)-α-aminobenzylpenicillinate” (priority 1973, dated 1976).
≈ marks a conversion by molar mass, not a printed value. Structures can show the parent of a compound that is named as a salt. Where two headings read alike, the source gives them in different places.

How the values were obtained:
[1] = salts of pivampicillin, cited from earlier work
[2] = Solubilities at room temperature (about 25°C) in various solvents; assay type: physicochemical
[3] = Density of crystalline pivampicillin compared with its salts; assay type: physicochemical; conditions: crystalline pivampicillin versus its salts
[4] = Stability of crystalline pivampicillin and of the preparation of Example 20 (chemical analyses); assay type: physicochemical; conditions: crystalline pivampicillin in medical preparations
Experimental: Thus the preparation, the formulation of which is described in Example 20 of the present Specification, had according to chemical analyses a stability corresponding to a decrease in activity in the order of 5% over a 2 years period when stored at 20°C and a relative humidity of 40%.

[5] = parameters: species or system healthy volunteers (adults); conditions: human, in vivo
Experimental: The above preparation was given to five healthy volunteers (adults), and as will appear from Table II below, gave rise to high serum concentrations and a high urinary recovery, as expressed below in terms of serum concentrations and urinary excretion, respectively.
SERUM CONCENTRATIONS (mcg per ml) AND URINARY EXCRETION
(in per cent of dose administered) OF AMPICILLIN IN FIVE
HEALTHY VOLUNTEERS (ADULTS) FOLLOWING ORAL ADMINISTRATION
OF 10 ml OF "PIVAMPICILLIN ORAL SUSPENSION" CONTAINING
PIVAMPICILLIN BASE CORRESPONDING TO 250 mg AMPICILLIN

[6] = chemical substance pivampicillin, under certain conditions; cited from earlier work

CC(C)(C)C(=O)OCOC(=O)[C@@H]1N2C(=O)[C@@H](NC(=O)[C@H](N)c3ccccc3)[C@H]2SC1(C)C [hydrochloride, pivaloyloxymethyl D(-)-α-aminobenzylpenicillinate, hydrochloride]
Solubility of salt in water (in words) ([1]; hydrochloride): readily soluble in water

CC(C)(C)C(=O)OCOC(=O)[C@@H]1N2C(=O)[C@@H](NC(=O)[C@H](N)c3ccccc3)[C@H]2SC1(C)C
Solubility of salt in water (in words) [1]: slightly soluble in water

CC(C)(C)C(=O)OCOC(=O)[C@@H]1N2C(=O)[C@@H](NC(=O)[C@H](N)c3ccccc3)[C@H]2SC1(C)C [pivampicillin, pivaloyloxymethyl D(-)-α-aminobenzylpenicillinate]
Solubility in water (in words) ([2]; crystalline pivampicillin): extremely low solubility in water | Stability in methanol ([2]; methanol, room temperature (about 25°C)): destruction | solubility ([2]; organic solvent or mixture, acetonitrile, room temperature (about 25°C), read-out: Solubility in acetonitrile): 450000 µg/mL (≈ 971 mM) | solubility ([2]; organic solvent or mixture, cyclohexane, room temperature (about 25°C), read-out: Solubility in cyclohexane): 150 µg/mL (≈ 0.324 mM) | solubility ([2]; organic solvent or mixture, ethanol, room temperature (about 25°C), read-out: Solubility in ethanol): 40000 µg/mL (≈ 86.3 mM) | solubility ([2]; organic solvent or mixture, ether, room temperature (about 25°C), read-out: Solubility in ether): 10000 µg/mL (≈ 21.6 mM) | solubility ([2]; organic solvent or mixture, isopropanol, room temperature (about 25°C), read-out: Solubility in isopropanol): 12000 µg/mL (≈ 25.9 mM) | solubility ([2]; organic solvent or mixture, isopropylether, room temperature (about 25°C), read-out: Solubility in isopropylether): 1000 µg/mL (≈ 2.16 mM) | solubility ([2]; organic solvent or mixture, light petroleum (bp. 60-80°C), room temperature (about 25°C), read-out: Solubility in light petroleum): 20 µg/mL (≈ 0.0431 mM) | solubility ([2]; organic solvent or mixture, methanol, room temperature (about 25°C), (destruction), read-out: Solubility in methanol): > 500000 µg/mL | solubility ([2]; water, room temperature (about 25°C), read-out: Solubility in water): 100 µg/mL (≈ 0.216 mM) | Density [3]: higher density than its salts | Stability (in words) [4]: stable compound | Absorption (in words) [5]: excellent absorption | Tendency to polymerize [6]: apt to polymerize
